Test results published in paper PMC6195765 (Organic letters, 2018).

System: PvfC
Assay: ATP-[…]PPi exchange assay
Type: biochemical, Pseudomonas entomophila
Settings: ATP co-substrate; adenylation domain

Km: 3.4 ± 0.7 mM
Compound: CC(C)[C@H](N)C(=O)O [L-Val]
